One assay has as its target EGFR L858R/C797S (Homo sapiens, UniProt P00533, C797S/L858R). In words: Biochemical EGFR kinase assay (Lance Ultra TR-FRET), double mutant L858R/C797S. Summed up: (§1)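 Kinase activity is measured by TR-FRET phosphopeptide detection. Compounds span 0.003 μM to 10 μM; the 1 h reaction at room temperature is quenched with EDTA, then labelled antibody (2 nM) is incubated 60 min before reading.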

The target of a further assay is EGFR L858R/T790M/C797S (Homo sapiens, UniProt P00533, C797S/L858R/T790M). In words: Biochemical EGFR kinase assay (Lance Ultra TR-FRET), triple mutant L858R/T790M/C797S. The essentials: as §1
Sequence of EGFR L858R/T790M/C797S (P00533 25-1210 T790M/C797S/L858R): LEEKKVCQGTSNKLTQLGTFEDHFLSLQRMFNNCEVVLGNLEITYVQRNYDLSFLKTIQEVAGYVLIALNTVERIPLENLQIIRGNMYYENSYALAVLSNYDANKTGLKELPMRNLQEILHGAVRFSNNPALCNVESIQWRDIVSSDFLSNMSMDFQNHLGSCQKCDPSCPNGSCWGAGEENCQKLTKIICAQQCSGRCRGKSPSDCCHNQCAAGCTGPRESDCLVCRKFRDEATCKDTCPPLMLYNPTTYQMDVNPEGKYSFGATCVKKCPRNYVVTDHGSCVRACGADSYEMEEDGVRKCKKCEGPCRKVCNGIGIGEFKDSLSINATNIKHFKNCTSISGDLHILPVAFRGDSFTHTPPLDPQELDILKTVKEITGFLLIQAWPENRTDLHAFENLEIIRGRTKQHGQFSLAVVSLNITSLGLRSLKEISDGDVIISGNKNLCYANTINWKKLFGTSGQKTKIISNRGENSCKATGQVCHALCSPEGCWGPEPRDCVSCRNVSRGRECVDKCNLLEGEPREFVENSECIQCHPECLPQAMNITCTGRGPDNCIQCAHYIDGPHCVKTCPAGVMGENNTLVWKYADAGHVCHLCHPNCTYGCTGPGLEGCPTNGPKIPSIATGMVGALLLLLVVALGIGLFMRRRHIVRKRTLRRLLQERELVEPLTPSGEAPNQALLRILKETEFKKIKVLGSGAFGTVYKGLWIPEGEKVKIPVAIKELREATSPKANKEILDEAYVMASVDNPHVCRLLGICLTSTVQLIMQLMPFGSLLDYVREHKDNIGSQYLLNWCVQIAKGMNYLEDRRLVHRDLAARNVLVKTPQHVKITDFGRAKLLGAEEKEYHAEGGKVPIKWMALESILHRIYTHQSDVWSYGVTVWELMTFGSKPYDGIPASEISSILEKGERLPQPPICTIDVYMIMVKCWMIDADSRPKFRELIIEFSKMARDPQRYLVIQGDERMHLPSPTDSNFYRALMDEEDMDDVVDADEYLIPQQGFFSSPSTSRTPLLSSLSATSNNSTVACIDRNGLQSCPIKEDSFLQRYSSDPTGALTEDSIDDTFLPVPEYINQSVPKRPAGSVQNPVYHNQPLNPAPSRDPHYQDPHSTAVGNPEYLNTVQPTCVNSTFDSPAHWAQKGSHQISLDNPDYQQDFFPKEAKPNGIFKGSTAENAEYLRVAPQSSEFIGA
On the technique in general: In TR-FRET formats the signal depends on donor and acceptor labels being close together.

A further assay has as its target EGFR del19/T790M/C797S (Homo sapiens, UniProt P00533, C797S/DEL746-750/T790M). In words: Biochemical EGFR kinase assay (Lance Ultra TR-FRET), triple mutant del19/T790M/C797S. The essentials:
as §1

The next assay addresses EGFR wildtype (WT) (Homo sapiens, UniProt P00533). In words: Biochemical EGFR kinase assay (Lance Ultra TR-FRET), wildtype. The essentials: as §1
Another assay deals with EGFR del19/C797S (Homo sapiens, UniProt P00533, C797S/DEL746-750). Nature of the assay: Biochemical EGFR kinase assay (Lance Ultra TR-FRET), double mutant del19/C797S. The essentials: as §1
Where [1] appears, read: IC50 L858R/C797S (nM) 100 μM ATP, 100 μM ATP.
The mark [2] stands for this setting: Km ATP, read-out: IC50 L858R/C797S (nM) Km ATP.
[3] abbreviates: IC50 L858R/T790M/C797S (nM) 100 μM ATP, 100 μM ATP.
Setting [4] is: Km ATP, read-out: IC50 L858R/T790M/C797S (nM) Km ATP.
Where [5] appears, read: IC50 del19/T790M/C797S (nM) 100 μM ATP, 100 μM ATP.
The mark [6] stands for this setting: Km ATP, read-out: IC50 del19/T790M/C797S (nM) Km ATP.
[7] abbreviates: IC50 WT (nM) 100 μM ATP, 100 μM ATP.
Setting [8] is: IC50 del19/C797S (nM) 100 μM ATP, 100 μM ATP.
Setting [9] is: Km ATP, read-out: IC50 del19/C797S (nM) Km ATP.
The mark [10] stands for this setting: Km ATP, read-out: IC50 WT (nM) Km ATP.

Each structure is given as a SMILES string. Like-named read-outs stand apart in the source and are kept apart here. Some results are limits rather than exact numbers.

Sequence of EGFR wildtype (WT) (P00533 25-1210): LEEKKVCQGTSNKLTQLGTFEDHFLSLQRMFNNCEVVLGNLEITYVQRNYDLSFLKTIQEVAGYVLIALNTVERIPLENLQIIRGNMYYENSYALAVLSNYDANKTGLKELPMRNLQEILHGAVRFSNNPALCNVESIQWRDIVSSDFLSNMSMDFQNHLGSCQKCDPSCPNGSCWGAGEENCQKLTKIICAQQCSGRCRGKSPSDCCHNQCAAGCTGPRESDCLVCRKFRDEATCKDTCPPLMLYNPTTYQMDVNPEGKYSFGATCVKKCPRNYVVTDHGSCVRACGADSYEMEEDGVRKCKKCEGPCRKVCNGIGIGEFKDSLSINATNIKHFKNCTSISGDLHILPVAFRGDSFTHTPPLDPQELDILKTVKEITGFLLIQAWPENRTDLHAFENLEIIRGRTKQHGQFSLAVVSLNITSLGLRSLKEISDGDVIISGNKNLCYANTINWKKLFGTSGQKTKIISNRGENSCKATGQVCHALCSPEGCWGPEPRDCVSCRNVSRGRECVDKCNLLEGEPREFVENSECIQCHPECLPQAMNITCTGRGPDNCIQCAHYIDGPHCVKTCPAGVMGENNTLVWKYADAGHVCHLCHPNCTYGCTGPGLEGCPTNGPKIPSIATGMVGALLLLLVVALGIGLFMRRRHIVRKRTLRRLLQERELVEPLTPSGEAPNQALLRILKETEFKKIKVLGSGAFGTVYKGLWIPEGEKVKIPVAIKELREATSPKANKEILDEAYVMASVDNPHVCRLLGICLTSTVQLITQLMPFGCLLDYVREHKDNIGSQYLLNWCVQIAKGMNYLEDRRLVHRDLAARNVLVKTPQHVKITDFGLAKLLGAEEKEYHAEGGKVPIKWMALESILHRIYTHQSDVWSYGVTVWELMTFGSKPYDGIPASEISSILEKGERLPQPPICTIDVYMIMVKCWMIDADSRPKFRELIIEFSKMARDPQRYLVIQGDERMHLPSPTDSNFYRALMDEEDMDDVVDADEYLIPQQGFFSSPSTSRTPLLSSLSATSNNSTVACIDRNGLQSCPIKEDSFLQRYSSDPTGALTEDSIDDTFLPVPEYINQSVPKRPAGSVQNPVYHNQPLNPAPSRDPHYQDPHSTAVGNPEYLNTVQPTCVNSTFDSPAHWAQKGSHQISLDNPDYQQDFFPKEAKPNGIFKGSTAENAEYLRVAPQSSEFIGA
Sequence of EGFR L858R/C797S (P00533 25-1210 C797S/L858R): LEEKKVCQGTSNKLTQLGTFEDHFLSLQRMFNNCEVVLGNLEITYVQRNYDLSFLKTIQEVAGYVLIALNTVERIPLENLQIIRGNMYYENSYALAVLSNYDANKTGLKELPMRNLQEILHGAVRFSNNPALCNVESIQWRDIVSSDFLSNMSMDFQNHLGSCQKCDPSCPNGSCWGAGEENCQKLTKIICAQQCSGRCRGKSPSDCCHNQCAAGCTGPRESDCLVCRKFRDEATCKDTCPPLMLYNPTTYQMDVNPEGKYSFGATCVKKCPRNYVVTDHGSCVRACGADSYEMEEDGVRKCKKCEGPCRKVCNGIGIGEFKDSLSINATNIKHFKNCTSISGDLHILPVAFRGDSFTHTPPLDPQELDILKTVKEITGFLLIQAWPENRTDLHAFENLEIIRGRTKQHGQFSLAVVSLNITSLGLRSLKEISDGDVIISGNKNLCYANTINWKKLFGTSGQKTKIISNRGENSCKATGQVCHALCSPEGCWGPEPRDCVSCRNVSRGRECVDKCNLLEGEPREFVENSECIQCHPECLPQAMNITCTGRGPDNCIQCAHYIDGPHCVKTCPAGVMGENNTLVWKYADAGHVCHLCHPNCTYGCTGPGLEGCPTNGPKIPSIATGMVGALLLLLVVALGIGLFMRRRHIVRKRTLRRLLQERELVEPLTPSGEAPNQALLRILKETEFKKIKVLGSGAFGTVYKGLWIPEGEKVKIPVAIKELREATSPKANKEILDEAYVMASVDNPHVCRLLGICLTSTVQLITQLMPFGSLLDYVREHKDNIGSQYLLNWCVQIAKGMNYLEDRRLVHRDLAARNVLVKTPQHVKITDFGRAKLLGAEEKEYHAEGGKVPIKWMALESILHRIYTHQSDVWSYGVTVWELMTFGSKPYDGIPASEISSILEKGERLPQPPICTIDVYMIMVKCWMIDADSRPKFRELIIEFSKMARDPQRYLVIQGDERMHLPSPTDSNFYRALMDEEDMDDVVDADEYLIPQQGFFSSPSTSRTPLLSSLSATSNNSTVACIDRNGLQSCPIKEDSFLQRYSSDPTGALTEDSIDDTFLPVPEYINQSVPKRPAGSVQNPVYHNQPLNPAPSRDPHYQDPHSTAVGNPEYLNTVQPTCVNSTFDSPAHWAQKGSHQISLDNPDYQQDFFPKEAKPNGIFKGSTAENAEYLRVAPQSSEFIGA
Sequence of EGFR del19/T790M/C797S (P00533 with tags, fused parts or gaps DEL746-750/T790M/C797S): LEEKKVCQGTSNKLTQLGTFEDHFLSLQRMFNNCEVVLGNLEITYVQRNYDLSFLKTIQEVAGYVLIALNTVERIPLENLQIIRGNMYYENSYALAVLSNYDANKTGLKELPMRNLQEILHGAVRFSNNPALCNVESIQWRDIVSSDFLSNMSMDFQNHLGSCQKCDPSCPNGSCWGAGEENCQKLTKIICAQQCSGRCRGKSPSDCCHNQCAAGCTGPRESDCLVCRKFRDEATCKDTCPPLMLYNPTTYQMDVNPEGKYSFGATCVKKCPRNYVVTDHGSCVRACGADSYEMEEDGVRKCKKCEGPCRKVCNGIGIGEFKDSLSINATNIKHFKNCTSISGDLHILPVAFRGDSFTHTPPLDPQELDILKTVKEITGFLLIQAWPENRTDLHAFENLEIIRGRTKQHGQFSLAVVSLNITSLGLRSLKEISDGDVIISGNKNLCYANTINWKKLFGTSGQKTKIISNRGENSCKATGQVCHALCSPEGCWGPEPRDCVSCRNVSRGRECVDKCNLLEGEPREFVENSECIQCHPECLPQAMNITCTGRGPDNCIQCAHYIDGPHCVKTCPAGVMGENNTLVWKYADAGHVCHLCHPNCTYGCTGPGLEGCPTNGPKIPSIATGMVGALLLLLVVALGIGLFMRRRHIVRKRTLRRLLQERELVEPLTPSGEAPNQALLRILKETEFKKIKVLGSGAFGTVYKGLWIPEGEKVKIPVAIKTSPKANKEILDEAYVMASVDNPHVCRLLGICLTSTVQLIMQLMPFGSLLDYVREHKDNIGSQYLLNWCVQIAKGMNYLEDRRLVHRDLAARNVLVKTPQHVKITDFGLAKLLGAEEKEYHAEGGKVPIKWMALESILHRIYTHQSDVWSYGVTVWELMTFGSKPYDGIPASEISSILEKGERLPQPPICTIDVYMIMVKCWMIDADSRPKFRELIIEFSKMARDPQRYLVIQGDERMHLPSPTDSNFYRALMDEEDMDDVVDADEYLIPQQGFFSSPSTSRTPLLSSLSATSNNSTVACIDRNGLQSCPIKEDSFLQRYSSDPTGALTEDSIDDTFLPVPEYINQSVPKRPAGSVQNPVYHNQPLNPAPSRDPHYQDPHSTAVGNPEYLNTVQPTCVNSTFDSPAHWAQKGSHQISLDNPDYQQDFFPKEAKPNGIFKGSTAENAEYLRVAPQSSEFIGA

In the case of `Cn1ccc(-c2cnc(Nc3ccnc(-c4cnn(S(=O)(=O)C5CC5)c4)n3)cc2N[C@H]2CC[C@@H](CCO)CC2)n1` [Example 136, 2-((1s,4s)-4-((2-((2-(1-(Cyclopropylsulfonyl)-1H-pyrazol-4-yl)pyrimidin-4-yl)amino)-5-(1-methyl-1H-pyrazol-3-yl)pyridin-4-yl)amino)cyclohexyl)ethan-1-ol], the IC50 on EGFR L858R/C797S (setting [1]) was 0.8 nM; on EGFR L858R/C797S (setting [2]), 0.2 nM; at EGFR L858R/T790M/C797S (setting [3]), 1 nM; on EGFR L858R/T790M/C797S (setting [4]) it was 0.4 nM; on EGFR del19/T790M/C797S (setting [5]) it was 0.9 nM; on EGFR del19/T790M/C797S (setting [6]), 0.8 nM. The IC50 on EGFR wildtype (WT) (setting [7]) is 321 nM; on EGFR del19/C797S (setting [8]), 1.2 nM; on EGFR del19/C797S (setting [9]), 0.3 nM.
Regarding `O=S(=O)(C1CC1)n1cc(-c2nccc(Nc3cc(NC4CCC(O)(C5CC5)CC4)c(-c4ccn(C(F)F)n4)cn3)n2)cn1` (centres unmarked) [Example 110, 1-Cyclopropyl-4-((2-((2-(1-(cyclopropylsulfonyl)-1H-pyrazol-4-yl)pyrimidin-4-yl)amino)-5-(1-(difluoromethyl)-1H-pyrazol-3-yl)pyridin-4-yl)amino)cyclohexan-1-ol], the IC50 came out at 23.7 nM on EGFR L858R/C797S (setting [2]); 1.9 nM on EGFR L858R/T790M/C797S (setting [4]); 2.5 nM on EGFR del19/T790M/C797S (setting [6]); 34.5 nM at EGFR wildtype (WT) (setting [10]); 24.7 nM at EGFR del19/C797S (setting [9]).
In the case of `C[C@]1(O)CC[C@@H](Nc2cc(Nc3ccnc(-c4cnn(S(=O)(=O)C5CC5)c4)n3)ncc2-c2csc(N3CCOCC3)n2)CC1` [Example 120, (1s,4s)-4-((2-((2-(1-(Cyclopropylsulfonyl)-1H-pyrazol-4-yl)pyrimidin-4-yl)amino)-5-(2-morpholinothiazol-4-yl)pyridin-4-yl)amino)-1-methylcyclohexan-1-ol], the IC50 stood at 41.7 nM against EGFR L858R/C797S (setting [1]); 3 nM on EGFR L858R/C797S (setting [2]); 0.9 nM against EGFR L858R/T790M/C797S (setting [3]); 0.3 nM on EGFR L858R/T790M/C797S (setting [4]); 0.9 nM against EGFR del19/T790M/C797S (setting [5]); 0.6 nM on EGFR del19/T790M/C797S (setting [6]). Besides, the IC50 is greater than 10000 nM against EGFR wildtype (WT) (setting [7]), 29.7 nM on EGFR wildtype (WT) (setting [10]), 2.3 nM against EGFR del19/C797S (setting [8]) and 1.4 nM on EGFR del19/C797S (setting [9]).
For the molecule `CC1(CNc2cc(Nc3ccnc(-c4cnn(S(=O)(=O)C5CC5)c4)n3)ncc2-c2ccn(C(F)F)n2)CCC(O)CC1` (centres unmarked) [Example 128, 4-(((2-((2-(1-(Cyclopropylsulfonyl)-1H-pyrazol-4-yl)pyrimidin-4-yl)amino)-5-(1-(difluoromethyl)-1H-pyrazol-3-yl)pyridin-4-yl)amino)methyl)-4-methylcyclohexan-1-ol], the IC50 against EGFR L858R/C797S (setting [1]) was 1120 nM; against EGFR L858R/T790M/C797S (setting [3]) it was 6.4 nM; on EGFR del19/T790M/C797S (setting [5]) it was 3.1 nM; against EGFR wildtype (WT) (setting [7]), greater than 10000 nM; on EGFR del19/C797S (setting [8]), 40.8 nM.
Consider `C[C@]1(O)CC[C@@H](Nc2cc(Nc3ccnc(-c4cnn(CC(F)F)c4)n3)ncc2-n2ccc(C(F)F)n2)CC1` [Example 177, (1s,4s)-4-((2-((2-(1-(2,2-Difluoroethyl)-1H-pyrazol-4-yl)pyrimidin-4-yl)amino)-5-(3-(difluoromethyl)-1H-pyrazol-1-yl)pyridin-4-yl)amino)-1-methylcyclohexan-1-ol], for which the IC50 on EGFR L858R/C797S (setting [2]) came to 36.6 nM; on EGFR L858R/T790M/C797S (setting [4]), 0.8 nM; on EGFR del19/T790M/C797S (setting [6]) it was 0.8 nM; on EGFR wildtype (WT) (setting [10]), 4620 nM; on EGFR del19/C797S (setting [9]), 1320 nM.
On to `O=S(=O)(C1CC1)n1cc(-c2nccc(Nc3cc(NCC4CCC(NCCF)CC4)c(-c4ccn(C(F)F)n4)cn3)n2)cn1` (centres unmarked) [Example 132, N^2-(2-(1-(Cyclopropylsulfonyl)-1H-pyrazol-4-yl)pyrimidin-4-yl)-5-(1-(difluoromethyl)-1H-pyrazol-3-yl)-N^4-((4-((2-fluoroethyl)amino)cyclohexyl)methyl)pyridine-2,4-diamine], for which the IC50 was 2.3 nM against EGFR L858R/C797S (setting [1]); 0.8 nM on EGFR L858R/C797S (setting [2]); 0.5 nM against EGFR L858R/T790M/C797S (setting [3]); 0.1 nM on EGFR L858R/T790M/C797S (setting [4]); 0.4 nM on EGFR del19/T790M/C797S (setting [5]); 0.3 nM on EGFR del19/T790M/C797S (setting [6]). For the same molecule, the IC50 was determined as 4690 nM against EGFR wildtype (WT) (setting [7]), 5.2 nM at EGFR wildtype (WT) (setting [10]), 1.1 nM against EGFR del19/C797S (setting [8]) and 0.5 nM at EGFR del19/C797S (setting [9]).
Consider `O=S(=O)(C1CC1)n1cc(-c2nccc(Nc3cc(N[C@H]4C[C@@H](CO)C4)c(-c4ccn(C(F)F)n4)cn3)n2)cn1` [Example 377, ((1s,3s)-3-((2-((2-(1-(Cyclopropylsulfonyl)-1H-pyrazol-4-yl)pyrimidin-4-yl)amino)-5-(1-(difluoromethyl)-1H-pyrazol-3-yl)pyridin-4-yl)amino)cyclobutyl)methanol], for which the IC50 came to 172 nM against EGFR L858R/C797S (IC50 L858R/C797S, 100 μM ATP); 5.7 nM at EGFR L858R/C797S (Km ATP, read-out: IC50 L858R/C797S, Km ATP); 0.7 nM against EGFR L858R/T790M/C797S (IC50 L858R/T790M/C797S, 100 μM ATP); 0.1 nM at EGFR L858R/T790M/C797S (Km ATP, read-out: IC50 L858R/T790M/C797S, Km ATP); 0.4 nM on EGFR del19/T790M/C797S (IC50 del19/T790M/C797S, 100 μM ATP); 0.2 nM on EGFR del19/T790M/C797S (Km ATP, read-out: IC50 del19/T790M/C797S, Km ATP). The IC50 against EGFR wildtype (WT) (IC50 WT, 100 μM ATP) is greater than 10000 nM; at EGFR wildtype (WT) (Km ATP, read-out: IC50 WT, Km ATP) it was 98.8 nM; against EGFR del19/C797S (IC50 del19/C797S, 100 μM ATP), 5.8 nM; at EGFR del19/C797S (Km ATP, read-out: IC50 del19/C797S, Km ATP), 4.2 nM.
For the molecule `O=S(=O)(C1CC1)n1cc(-c2nccc(Nc3cc(N[C@@H]4CC[C@H](O)C4)c(-c4ccn(C(F)F)n4)cn3)n2)cn1` [Example 13, (1S,3R)-3-((2-((2-(1-(Cyclopropylsulfonyl)-1H-pyrazol-4-yl)pyrimidin-4-yl)amino)-5-(1-(difluoromethyl)-1H-pyrazol-3-yl)pyridin-4-yl)amino)cyclopentan-1-ol], the IC50 is 12.4 nM against EGFR L858R/C797S (setting [1]); 1 nM on EGFR L858R/T790M/C797S (setting [3]); 0.7 nM at EGFR del19/T790M/C797S (setting [5]); 5620 nM against EGFR wildtype (WT) (setting [7]); 3.8 nM at EGFR del19/C797S (setting [8]).
For `CN(CC(F)F)C[C@H]1CC[C@@H](Nc2cc(Nc3ccnc(-c4cnn(S(=O)(=O)C5CC5)c4)n3)ncc2-c2ccn(C(F)F)n2)CC1` [Example 206, N^2-(2-(1-(Cyclopropylsulfonyl)-1H-pyrazol-4-yl)pyrimidin-4-yl)-N^4-((1s,4s)-4-(((2,2-difluoroethyl)(methyl)amino)methyl)cyclohexyl)-5-(1-(difluoromethyl)-1H-pyrazol-3-yl)pyridine-2,4-diamine], in that order: 206 nM, 13.8 nM, 22.1 nM, greater than 10000 nM and 26.9 nM.
As to `CN(C)CCCn1ccc(-c2cnc(Nc3ccnc(-c4cnn(S(=O)(=O)C5CC5)c4)n3)cc2N[C@H]2CC[C@@H](NCCF)CC2)n1` [Example 301, N^2-(2-(1-(Cyclopropylsulfonyl)-1H-pyrazol-4-yl)pyrimidin-4-yl)-5-(1-(3-(dimethylamino)propyl)-1H-pyrazol-3-yl)-N^4-((1s,4s)-4-((2-fluoroethyl)amino)cyclohexyl)pyridine-2,4-diamine], the IC50 was determined as 3.5 nM on EGFR L858R/C797S (setting [1]); 0.1 nM on EGFR L858R/T790M/C797S (setting [3]); 0.1 nM against EGFR del19/T790M/C797S (setting [5]); 1370 nM against EGFR wildtype (WT) (setting [7]); 0.4 nM at EGFR del19/C797S (setting [8]).
As for `CN(C)CC[C@H]1CC[C@@H](Nc2cc(Nc3nc(-c4cnn(S(=O)(=O)C5CC5)c4)ncc3F)ncc2-c2ccn(C(F)F)n2)CC1` [Example 325, N^2-(2-(1-(Cyclopropylsulfonyl)-1H-pyrazol-4-yl)-5-fluoropyrimidin-4-yl)-5-(1-(difluoromethyl)-1H-pyrazol-3-yl)-N^4-((1s,4s)-4-(2-(dimethylamino)ethyl)cyclohexyl)pyridine-2,4-diamine], the IC50 at EGFR L858R/C797S (setting [2]) is 0.3 nM; at EGFR L858R/T790M/C797S (setting [4]), 0.1 nM; at EGFR del19/T790M/C797S (setting [6]), 0.2 nM; at EGFR wildtype (WT) (setting [10]), 1.2 nM; at EGFR del19/C797S (setting [9]) it was 0.6 nM.
